“And” between values parts separate entries of the source, which are not always exact repeats. Equal values may be shown once. Read-outs that look alike come from different tables or passages of the source.
Columns and labels:
CYP1A2 mRNA [1] = assay: Quantitative RT-PCR analysis of CYP1A2 mRNA content in primary human hepatocytes; details: 3-MC 2 μM; for Relative Fold mRNA Content: single sample
CYP1A2 mRNA [2] = details: human, 3 days

Row | Percent of Adjusted Positive Control (CYP1A2 mRNA [2]; 1 nM) [%] | Percent of Adjusted Positive Control (CYP1A2 mRNA [2]; 10 nM) [%] | Percent of Adjusted Positive Control (CYP1A2 mRNA [2]; 100 nM) [%] | SMILES | Mean Relative Fold mRNA Content (CYP1A2 mRNA [1]; lot Hu485) | Percent of Adjusted Positive Control (CYP1A2 mRNA [1]; lot Hu485) [%] | Relative Fold mRNA Content (CYP1A2 mRNA [1]; lot Hu485) | Mean Relative Fold mRNA Content (CYP1A2 mRNA [1]; lot Hu503) | Percent of Positive Control (CYP1A2 mRNA [1]; lot Hu503) [%] | Relative Fold mRNA Content (CYP1A2 mRNA [1]; lot Hu503) | Mean Relative Fold mRNA Content (CYP1A2 mRNA [1]; lot Hu4021) | Percent of Positive Control (CYP1A2 mRNA [1]; lot Hu4021) [%] | Relative Fold mRNA Content (CYP1A2 mRNA [1]; lot Hu4021)
1 |  |  |  | Cc1ccc2cc3c(ccc4ccccc43)c3c2c1CC3 [3-MC, 3-methylcholanthrene] | 396 | 100.00 | 361 and 445 and 380 | 161 | 100.00 | 167 and 137 and 180 | 71.9 | 100.00 | 68.7 and 69.1 and 77.8
2 | 1.23 | 1.18 | 0.70 | CC[C@]1(O)C[C@@H]2CN(CCc3c([nH]c4ccccc34)[C@@](C(=O)OC)(c3cc4c(cc3OC)N(C)[C@H]3[C@@](O)(C(=O)OC)[C@H](OC(C)=O)[C@]5(CC)C=CCN6CC[C@]43[C@@H]65)C2)C1 [vinblastine] |  |  |  |  |  |  |  |  | 

Source: US20090318561A1 (MUTUAL PHARMACEUTICAL COMPANY, INC., priority 2008, published 2009)
